Assay results from patent US20260041093A1, “Ionic Derivatives Of Aromatic Carboxylic Acid For Use As Plant Stimulants, Method For Stimulating Plants And Use Of These Derivatives For Manufacturing Compositions For Stimulating Plants” (FUNDACJA UNIWERSYTETU IM. ADAMA MICKIEWICZA W POZNANIU, priority 2022, published 2026).
Like-named read-outs stand apart in the source and are kept apart here.

Experiments:
[1] = test system: winter rapeseed; settings: for more aboveground dry matter compared to control: last harvest date, fully ripe
Description: The experiment was established using the long strip method in four repetitions. The dimensions of the plots at establishment were 96 m^2 gross, while the harvestable area was 23.25 m^2 net.
In the experiment, uniform NPK fertilization was applied, using both bulk and liquid fertilizers.
The following facilities were included in the experiment: • 1. control, no stimulant application, standard fungicide protection • 2. stimulant applied at stage 31-32 according to the BBCH development scale, standard fungicide protection • 3. stimulant applied at stage 53-55 according to the BBCH development scale, no fungicide protection

[2] = test system: lettuce; settings: 3-chlorosalicylate 100 mg/L double application, benzothiadiazole salt 50 mg/L single application
Experimental: The purpose of the study was to determine the effect of foliar spraying with test solutions on lettuce plants (Lactuca sativa L. ‘Zeralda’) under abiotic stress conditions—low temperature. After 7 and 14 days after transplanting the plants to a permanent place, spraying of the plants was carried out. […] After another 7 days, low temperature stress was induced—plants were grown in three glass chambers with a day temperature of 22° C. and night temperatures of 4, 12 and 20° C. until harvest.

[3] = test system: tomato; assay: Greenhouse tomato sprayed three times: yield, health-promoting substances, leaf chlorophyll (Example 2); assay type: in vivo; settings: 80 mg/L, benzothiadiazole salt 30 mg/L, chitosan lactate 50 mg/L
Experimental: Biostimulant properties were evaluated for the following stimulants: […] The evaluation of stimulant properties included the influence of tested substances on tomato yield, content of health-promoting substances in yield and chlorophyll content in tomato leaves. […] The untreated control plants were sprayed with distilled water. During the experiment, total yield weight, commercial and non-commercial yield and average commercial fruit weight, number of fruits per plant and average fruit weight per plant were evaluated. […] Chlorophyll was measured before each treatment and one day after each treatment using Minolta's SPAD-502 chlorophyll meter.

[4] = test system: lettuce; settings: double application, 3-chlorosalicylate 100 mg/L, benzothiadiazole salt 50 mg/L
Description: The purpose of the study was to determine the effect of foliar spraying with test solutions on lettuce (Lactuca sativa L. ‘Zeralda’) plants. The plants were sprayed 7 and 14 days after transplanting to a permanent site. […] After another 7 days, drought stress was induced (plants in the selected combinations were not watered until symptoms of leaf wilting appeared), followed by proper watering of the plants again. Control plants were watered in turn to a constant weight. After 3 days after re-watering, chlorophyll fluorescence was measured (OJIP test, methodology described, among others, in Kalaji H. M., 2011. Impact of abiotic stress factors on chlorophyll fluorescence in plants of selected barley cultivars Hordeum vulgare L. SGGW Publishing House, Warsaw [https://badanieroslin.pl/wp-content/uploads/2018/11/Oddzialywanie-abiotycznych-czynnikow. . . ..pdf]) and the condition of the plants was assessed.
The measurement was carried out after inducing drought stress, followed by re-watering the plants to a constant weight. […] This parameter is lowered by stresses.

[5] = BBCH 32, standard fungicide protection, 80 mg/L, benzothiadiazole salt 25 mg/L
[6] = BBCH 32, stimulant only, 80 mg/L, benzothiadiazole salt 25 mg/L
[7] = BBCH 55, standard fungicide protection, 80 mg/L, benzothiadiazole salt 25 mg/L
[8] = BBCH 55, without fungicide, 80 mg/L, benzothiadiazole salt 25 mg/L
[9] = first sampling date, stimulant at BBCH 31-32, no fungicide yet, 80 mg/L, benzothiadiazole salt 25 mg/L
[10] = second date, regardless of cultivation technology, 80 mg/L, benzothiadiazole salt 25 mg/L

C[N+](C)(C)CCO.O=C([O-])c1cccc(Cl)c1O [choline 3-chlorosalicylate]
increase in calcium uptake [1, 5]: 5% | increase in magnesium uptake [1, 5]: 4% | increase in nitrogen uptake [1, 5]: 6% | increase in phosphorus uptake [1, 5]: 7% | increase in potassium uptake [1, 5]: 6% | increase in calcium uptake [1, 6]: 8% | increase in magnesium uptake [1, 6]: 12% | increase in nitrogen uptake [1, 6]: 9% | increase in phosphorus uptake [1, 6]: 7% | increase in potassium uptake [1, 6]: 8% | higher fat content ([1]; BBCH 32, with fungicide, 80 mg/L, benzothiadiazole salt 25 mg/L): 6% | higher fat content ([1]; BBCH 32, without fungicide, 80 mg/L, benzothiadiazole salt 25 mg/L): 8% | increase in calcium uptake [1, 7]: 9% | increase in fat content [1, 7]: 6% | increase in magnesium uptake [1, 7]: 10% | increase in nitrogen uptake [1, 7]: 11% | increase in phosphorus uptake [1, 7]: 10% | increase in potassium uptake [1, 7]: 8% | increase in calcium uptake [1, 8]: 10% | increase in fat content [1, 8]: 5% | increase in magnesium uptake [1, 8]: 12% | increase in nitrogen uptake [1, 8]: 11% | increase in phosphorus uptake [1, 8]: 10% | increase in potassium uptake [1, 8]: 7% | seed yields higher compared to control ([1]; both fungicide and stimulant treatments, 80 mg/L, benzothiadiazole salt 25 mg/L): 20% | chlorophyll content, differences between the tested objects ([1]; first measurement date): no differences were observed | more biomass (dry weight) compared to control [1, 9]: 34% | more biomass (fresh weight) compared to control [1, 9]: 36% | more aboveground dry matter compared to control ([1]; only the stimulant, 80 mg/L, benzothiadiazole salt 25 mg/L): 42% | more aboveground dry matter compared to control ([1]; with fungicide protection, 80 mg/L, benzothiadiazole salt 25 mg/L): 38% | more dry weight compared to control, on average [1, 10]: 32% | more fresh weight compared to control, on average [1, 10]: 28% | weight of one thousand seeds higher compared to control ([1]; tested combinations, 80 mg/L, benzothiadiazole salt 25 mg/L): 10% | more chlorophyll in the leaves (SPAD) compared to control ([1]; with a fungicide, printed 'first date' (of second and third measurement dates), 80 mg/L, benzothiadiazole salt 25 mg/L): 5% | more chlorophyll in the leaves (SPAD) compared to control ([1]; with a fungicide, printed 'second date', 80 mg/L, benzothiadiazole salt 25 mg/L): 7% | more chlorophyll in the leaves (SPAD) compared to control ([1]; without a fungicide, printed 'first date', 80 mg/L, benzothiadiazole salt 25 mg/L): 6% | more chlorophyll in the leaves (SPAD) compared to control ([1]; without a fungicide, printed 'second date', 80 mg/L, benzothiadiazole salt 25 mg/L): 5% | seed yields higher compared to control ([1]; without fungicide protection, stimulant at BBCH 31-32, 80 mg/L, benzothiadiazole salt 25 mg/L): 10% | Head weight, 4° C. ([2]; night temperature 4° C.): 48.9 b g/plant | Head weight, 12° C. ([2]; night temperature 12° C.): 52.8 b g/plant | Head weight, 20° C. ([2]; night temperature 20° C.): 65.3 b g/plant | Chlorophyll content (SPAD), a day after treatment #1 [3]: 61.4 b | Chlorophyll content (SPAD), a day after treatment #2 [3]: 60.3 b | Chlorophyll content (SPAD), a day after treatment #3 [3]: 62.5 b | Chlorophyll content (SPAD), Treatment #1 ([3]; before treatment #1): 50.2 a | Chlorophyll content (SPAD), Treatment #2 ([3]; before treatment #2): 49.4 a | Chlorophyll content (SPAD), Treatment #3 ([3]; before treatment #3): 50.9 a | Average fruit weight per plant ([3]; spray 3x): 154.23 b g | Average weight of marketable fruit ([3]; spray 3x): 26.25 b kg/m^2 | Commercial yield ([3]; spray 3x): 18.4 b kg/m^2 | Number of fruits per plant ([3]; spray 3x): 4.30 b | Total yield ([3]; spray 3x): 19.13 b kg/m^2 | Calcium ([3]; tomato fruits): 97.2 a mg/kg | Lycopene ([3]; tomato fruits): 36.4 b mg/kg | Magnesium ([3]; tomato fruits): 104.5 b mg/kg | Vit. C ([3]; tomato fruits): 191.5 c mg/kg | Vit. E ([3]; tomato fruits): 25.6 b mg/kg | °Brix (sugar content of the liquid expressed in degree of Brix) ([3]; tomato fruits): 5.91 b g | ABS/RC ([4]; Control (watered)): 1.48 b | DIo/RC ([4]; Control (watered)): 0.24 a | ETo/RC ([4]; Control (watered)): 1.08 b | F0 ([4]; Control (watered)): 4877 a | FM ([4]; Control (watered)): 34278 a | FM/F0 ([4]; Control (watered)): 7.32 c | Fv ([4]; Control (watered)): 29401 a | Fv/F0 ([4]; Control (watered)): 6.32 c | Fv/FM ([4]; Control (watered)): 0.86 c | Pi_Abs (PSII functioning index calculated on the basis of energy absorption) ([4]; Control (watered)): 12.74 days | TRo/RC ([4]; Control (watered)): 1.72 b | ABS/RC ([4]; Drought): 1.20 a | DIo/RC ([4]; Drought): 0.24 a | ETo/RC ([4]; Drought): 0.81 a | F0 ([4]; Drought): 5524 a | FM ([4]; Drought): 33908 a | FM/F0 ([4]; Drought): 6.16 ab | Fv ([4]; Drought): 28384 b | Fv/F0 ([4]; Drought): 5.16 ab | Fv/FM ([4]; Drought): 0.84 ab | Pi_Abs (PSII functioning index calculated on the basis of energy absorption) ([4]; Drought): 7.77 b | TRo/RC ([4]; Drought): 1.44 a | % dry matter (leaf), Average [4]: 3.72 b % | % dry matter (leaf), Drought [4]: 3.55 b % | % dry matter (leaf), Watered [4]: 3.96 b % | Head and root weight, Average [4]: 72.5 a g/plant | Head and root weight, Drought [4]: 71.7 abc g/plant | Head and root weight, Watered [4]: 73.2 abc g/plant | Head weight, Average [4]: 51.3 a g/plant | Head weight, Drought [4]: 52.8 b g/plant | Head weight, Watered [4]: 50.6 ab g/plant | RWC (relative water content), Watered [4]: 73.2 ab % | RWC, Average [4]: 73.3 a % | RWC, Drought [4]: 71.9 ab %
